# Literature values, collected in patent publication US6476042B1, “Combination therapy for the treatment of migraine” (Pfizer Inc., priority 1999, dated 2002).
# System: carotid vascular resistance
# Conditions: anaesthetized dog
smiles,measurement,value
"CNS(=O)(=O)Cc1ccc2[nH]cc(CCN(C)C)c2c1 [Sumatriptan, sumatriptan]",effect on carotid vascular resistance,selective increase
